# Measured values published in patent publication US20040214192A1, “Methods of testing for allergic diseases and therapeutic agents for treating same” (Genox Research, Inc., priority 2002, published 2004).
# T1: LBD of Nor1 (Homo sapiens, UniProt Q92570)
# T1 construct: GST-LBD of Nor1 was expressed in E. coli and purified; GST (N); made in house; host or cells: E. coli
# T1 sequence (Q92570 394-623 limits assumed): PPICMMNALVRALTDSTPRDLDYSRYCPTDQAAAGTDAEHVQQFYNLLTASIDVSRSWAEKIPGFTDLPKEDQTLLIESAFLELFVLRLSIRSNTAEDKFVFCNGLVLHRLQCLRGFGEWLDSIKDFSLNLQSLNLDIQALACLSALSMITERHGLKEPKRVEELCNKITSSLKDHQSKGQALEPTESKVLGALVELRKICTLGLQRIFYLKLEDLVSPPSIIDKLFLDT
# B1: IL-4: cytokine used to activate eosinophils (protein, UniProt P05112 25-153, looked up)
# Interleukin-4: HKCDITLQEIIKTLNSLTEQKTLCTELTVTDIFAASKNTTEKETFCRAATVLRQFYSHHEKDTRCLGATAQQFHRHKQLIRFLKRLDRNLWGLAGLNSCPVKEANQSTLENFLERLKTIMREKYSKCSS
# Target: T2, full-length NOR-1 (MINOR) (Homo sapiens, UniProt Q92570)
# T2 construct: Full length Nor1-; expressed in transfected cells; host or cells: NIH3T3
# T2 sequence (Q92570 whole entry): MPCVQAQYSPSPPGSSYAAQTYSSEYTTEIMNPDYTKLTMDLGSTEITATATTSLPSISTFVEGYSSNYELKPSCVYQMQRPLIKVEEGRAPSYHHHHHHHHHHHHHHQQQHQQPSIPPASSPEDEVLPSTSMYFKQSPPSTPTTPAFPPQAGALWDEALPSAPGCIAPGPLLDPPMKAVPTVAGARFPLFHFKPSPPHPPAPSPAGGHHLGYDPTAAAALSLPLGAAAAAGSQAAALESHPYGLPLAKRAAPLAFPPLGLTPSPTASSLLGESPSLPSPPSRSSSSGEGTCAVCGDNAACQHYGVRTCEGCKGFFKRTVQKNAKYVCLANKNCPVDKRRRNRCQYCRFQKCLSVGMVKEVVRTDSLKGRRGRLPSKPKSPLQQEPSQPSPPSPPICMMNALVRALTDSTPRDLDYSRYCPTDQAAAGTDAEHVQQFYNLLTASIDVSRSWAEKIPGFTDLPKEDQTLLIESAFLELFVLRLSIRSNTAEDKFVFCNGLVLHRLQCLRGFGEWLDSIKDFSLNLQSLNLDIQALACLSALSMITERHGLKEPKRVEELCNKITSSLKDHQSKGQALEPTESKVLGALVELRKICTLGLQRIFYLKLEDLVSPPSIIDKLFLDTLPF
# Experiment: Mammalian Two Hybrid luciferase reporter, GAL4-full-length Nor1 construct
# Type: cell-based
# Details: NIH3T3 cells, luciferase, with RXRα
# Procedure: A full-length gene or the ligand-binding site of NOR-1 is inserted into X, and the full-length gene of the retinoic acid X receptor (RXR)α is inserted into Y. These constructs are transfected into NIH3T3 cells, and the activity of induced luciferase is measured.
# Mammalian Two Hybrid system was slightly modified. […] Actually, activity could not be detected for lipid-soluble metabolites existing on the metabolic map of mammals that might be natural ligands of NOR-1 in a screening system wherein only the ligand-binding domain was inserted. A plasmid wherein the full-length gene of NOR-1 (MINOR) had been inserted into pBIND and a luciferase reporter plasmid containing a GAL4 binding site were cotransfected into NIH3T3 cells, and the luciferase activity was measured automatically. By further addition of small molecule substances to this system enables screening of ligands by their transcription enhancing activity.
# NOR-1 (MINOR) expression is induced under conditions where the leukocytes are hyperactive, such as in atopic dermatitis peripheral blood, and apoptosis of cells is very likely to occur as a result of this induced NOR-1 (MINOR) expression. Ligands existing in vivo may exist at sites where nuclear receptors are highly expressed. Therefore, small-molecule lipid-soluble mediators that are expected to be produced under such conditions were added to the assay system as candidate ligands to evaluate their luciferase activity enhancing function. […] Thus, the method established by the present inventors opened a way to discover native ligands and synthetic ligands of NOR-1 (MINOR) by high throughput.
row,Full length Nor1-ligand activity RXR(+) [µM],Molecule
1,10,CCCCC[C@@](C)(O)/C=C/[C@H]1C=CC(=O)[C@@H]1C/C=C\CCCC(=O)O [15(R)-15-methyl Prostaglandin A2]
2,10,CCCCC[C@H](O)/C=C/[C@H]1C=CC(=O)[C@@H]1CCCCCCC(=O)O [Prostaglandin A1]
3,10,CCCCC[C@H](O)/C=C/[C@H]1C=CC(=O)[C@@H]1C/C=C\CCCC(=O)O [Prostaglandin A2]
4,10,CCCCC[C@H](O)/C=C/[C@H]1C=CC(=O)[C@H]1CCCCCCC(=O)O [8-iso Prostaglandin A1]
5,5,"CCCCC(C)(C)[C@H](O)/C=C/[C@H]1C=CC(=O)[C@@H]1C/C=C\CCCC(=O)O [16,16-dimethyl Prostaglandin A2]"
6,30,O=C(O)CCC/C=C\C[C@H]1C(=O)C=C[C@@H]1/C=C/[C@@H](O)COc1ccccc1 [16-phenoxy tetranor Prostaglandin A2]
7,10,"CCCCC/C=C\C=C1\C(=O)C=C[C@@H]1C/C=C\CCCC(=O)O [15-dioxy-Δ^12,14-Prostaglandin J2]"
8,10,O=C(O)CCC/C=C\C[C@H]1C(=O)C=C[C@@H]1/C=C/[C@@H](O)CCc1ccccc1 [17-phenyl trinor Prostaglandin A2]

# Same assay, conditions: NIH3T3 cells, luciferase, with RXRα; symbol
row,Full length Nor1-ligand activity RXR(+),Molecule
1,∘,CCCCC[C@@](C)(O)/C=C/[C@H]1C=CC(=O)[C@@H]1C/C=C\CCCC(=O)O [15(R)-15-methyl Prostaglandin A2]
2,∘,CCCCC[C@H](O)/C=C/[C@H]1C=CC(=O)[C@@H]1CCCCCCC(=O)O [Prostaglandin A1]
3,∘,CCCCC[C@H](O)/C=C/[C@H]1C=CC(=O)[C@@H]1C/C=C\CCCC(=O)O [Prostaglandin A2]
4,∘,CCCCC[C@H](O)/C=C/[C@H]1C=CC(=O)[C@H]1CCCCCCC(=O)O [8-iso Prostaglandin A1]
5,∘,"CCCCC(C)(C)[C@H](O)/C=C/[C@H]1C=CC(=O)[C@@H]1C/C=C\CCCC(=O)O [16,16-dimethyl Prostaglandin A2]"
6,∘,O=C(O)CCC/C=C\C[C@H]1C(=O)C=C[C@@H]1/C=C/[C@@H](O)COc1ccccc1 [16-phenoxy tetranor Prostaglandin A2]
7,∘,"CCCCC/C=C\C=C1\C(=O)C=C[C@@H]1C/C=C\CCCC(=O)O [15-dioxy-Δ^12,14-Prostaglandin J2]"
8,∘,O=C(O)CCC/C=C\C[C@H]1C(=O)C=C[C@@H]1/C=C/[C@@H](O)CCc1ccccc1 [17-phenyl trinor Prostaglandin A2]

# Same assay, conditions: NIH3T3 cells, luciferase, without RXRα
row,Full length Nor1-ligand activity RXR(−) [µM],Molecule
1,10,CCCCC[C@@](C)(O)/C=C/[C@H]1C=CC(=O)[C@@H]1C/C=C\CCCC(=O)O [15(R)-15-methyl Prostaglandin A2]
2,10,CCCCC[C@H](O)/C=C/[C@H]1C=CC(=O)[C@@H]1CCCCCCC(=O)O [Prostaglandin A1]
3,10,CCCCC[C@H](O)/C=C/[C@H]1C=CC(=O)[C@@H]1C/C=C\CCCC(=O)O [Prostaglandin A2]
4,5,"CCCCC(C)(C)[C@H](O)/C=C/[C@H]1C=CC(=O)[C@@H]1C/C=C\CCCC(=O)O [16,16-dimethyl Prostaglandin A2]"
5,30,O=C(O)CCC/C=C\C[C@H]1C(=O)C=C[C@@H]1/C=C/[C@@H](O)COc1ccccc1 [16-phenoxy tetranor Prostaglandin A2]
6,10,O=C(O)CCC/C=C\C[C@H]1C(=O)C=C[C@@H]1/C=C/[C@@H](O)CCc1ccccc1 [17-phenyl trinor Prostaglandin A2]

# Same assay, conditions: NIH3T3 cells, luciferase, without RXRα; symbol
row,Full length Nor1-ligand activity RXR(−),Molecule
1,∘,CCCCC[C@@](C)(O)/C=C/[C@H]1C=CC(=O)[C@@H]1C/C=C\CCCC(=O)O [15(R)-15-methyl Prostaglandin A2]
2,∘,CCCCC[C@H](O)/C=C/[C@H]1C=CC(=O)[C@@H]1CCCCCCC(=O)O [Prostaglandin A1]
3,∘,CCCCC[C@H](O)/C=C/[C@H]1C=CC(=O)[C@@H]1C/C=C\CCCC(=O)O [Prostaglandin A2]
4,∘,"CCCCC(C)(C)[C@H](O)/C=C/[C@H]1C=CC(=O)[C@@H]1C/C=C\CCCC(=O)O [16,16-dimethyl Prostaglandin A2]"
5,∘,O=C(O)CCC/C=C\C[C@H]1C(=O)C=C[C@@H]1/C=C/[C@@H](O)COc1ccccc1 [16-phenoxy tetranor Prostaglandin A2]
6,∘,O=C(O)CCC/C=C\C[C@H]1C(=O)C=C[C@@H]1/C=C/[C@@H](O)CCc1ccccc1 [17-phenyl trinor Prostaglandin A2]

# Same assay, conditions: luciferase reporter system
row,Molecule,function of enhancing the transcriptional activation ability of NOR-1 (MINOR)
1,CCCCC[C@@](C)(O)/C=C/[C@H]1C=CC(=O)[C@@H]1C/C=C\CCCC(=O)O [15(R)-15-methyl Prostaglandin A2],enhancing the transcriptional activation ability of NOR-1 (MINOR)
2,CCCCC[C@H](O)/C=C/[C@H]1C=CC(=O)[C@@H]1CCCCCCC(=O)O [Prostaglandin A1],enhancing the transcriptional activation ability of NOR-1 (MINOR)
3,CCCCC[C@H](O)/C=C/[C@H]1C=CC(=O)[C@@H]1C/C=C\CCCC(=O)O [Prostaglandin A2],enhancing the transcriptional activation ability of NOR-1 (MINOR)
4,O=C(O)CCC/C=C\C[C@H]1C(=O)C=C[C@@H]1/C=C/[C@@H](O)COc1ccccc1 [16-phenoxy tetranor Prostaglandin A2],enhancing the transcriptional activation ability of NOR-1 (MINOR)
5,O=C(O)CCC/C=C\C[C@H]1C(=O)C=C[C@@H]1/C=C/[C@@H](O)CCc1ccccc1 [17-phenyl trinor Prostaglandin A2],enhancing the transcriptional activation ability of NOR-1 (MINOR)
6,"CCCCCC(=O)CC[C@H]1C=CC(=O)[C@@H]1C/C=C\CCCC(=O)O [13,14-dihydro-15-keto Prostaglandin A2]",did not show any activity in the reporter system

# Target: T1, LBD of Nor1
# Experiment: BIAcor S51 binding to GST-LBD of Nor1
# Details: BIAcor S51, comparison with GST
# Source text: Glutathione S-transferase (GST) was used as a comparison control and 13,14-Dihydro-15-keto-PGA2 as a negative control.
# In the present invention, as a means for detecting or measuring bound compound, a biosensor utilizing surface plasmon resonance phenomenon may be used. A biosensor (for example, BIAcore, Pharmacia) utilizing the surface plasmon resonance phenomenon allows real-time observation of the interaction between the NOR-1 protein and a test compound as a surface plasmon resonance signal. Therefore, using biosensors such as BIAcore, the binding between the NOR-1 protein and the test compound can be evaluated.
row,Molecule,binding to the LBD of Nor1
1,CCCCC[C@H](O)/C=C/[C@H]1C=CC(=O)[C@@H]1CCCCCCC(=O)O [Prostaglandin A1],binding of PGA1 and PGA2 to the LBD of Nor1 was detected
2,CCCCC[C@H](O)/C=C/[C@H]1C=CC(=O)[C@@H]1C/C=C\CCCC(=O)O [Prostaglandin A2],binding of PGA1 and PGA2 to the LBD of Nor1 was detected
3,"CCCCCC(=O)CC[C@H]1C=CC(=O)[C@@H]1C/C=C\CCCC(=O)O [13,14-dihydro-15-keto Prostaglandin A2]",did not bind to LBD

# System: Nor1 expression in peripheral blood eosinophils
# Experiment: Nor1 expression induction in cultured peripheral blood eosinophils
# Type: cell-based, human
# Details: cultured peripheral blood eosinophils from healthy subjects
# Source text: Values collected for beta-actin and GAPDH are shown.
# A large amount of peripheral blood eosinophils were collected from healthy subjects, and cultured in suspension in a petri dish while suppressing their activation. […] The anti-CD30 antibody that has an agonistic activity against eosinophilic CD30 has recently been receiving attention, because it induces apoptosis of eosinophils via a specific intracellular pathway and may serve as a therapeutic agent for asthma.
# Thus, the apoptosis by anti-CD30 antibody accompanied by induction of Nor1 may occur through an eosinophil-specific apoptosis pathway that is different from the conventional pathway.
row,Molecule,induction of Nor1
1,IL-5: cytokine used to activate eosinophils,did not lead to the induction of Nor1
2,B1,did not lead to the induction of Nor1

# System: Nor1 gene that completely lacked the LBD region (ΔLBD)
# Experiment: Mammalian Two Hybrid reporter with LBD deletion mutant of Nor1
# Type: cell-based, human
# Details: Nor1 lacking the LBD region
# Source text: Therefore, prostaglandin A2 was implicated to function by actually acting on the LBD region of the nuclear receptor.
row,Molecule,transcriptional activity with LBD deletion mutant
1,CCCCC[C@H](O)/C=C/[C@H]1C=CC(=O)[C@@H]1C/C=C\CCCC(=O)O [Prostaglandin A2],remarkable suppression of the transcriptional activity
